Read-outs that look alike come from different tables or passages of the source.
Legend:
[1] = test system: Phosphorylation of ERK1/2 in MIA PaCa-2 cells; test: Phospho-ERK1/2 MSD assay in MIA PaCa-2 cells; type: cell-based; settings: read-out: p-ERK IC50 (2 h, MiaPaCa-2; μM), 2 h compound treatment, MIA PaCa-2 cells, EGF stimulated
Method in brief: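 Phospho-ERK1/2 measured by MSD electrochemiluminescence kit in RIPA lysates of MIA PaCa-2 cells. Cells were treated with compound titrations for 2 or 4 h at 37 °C, 5% CO2, followed by a 10 min pulse of 10 ng/mL EGF.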

[2] = target: GDP-bound KRAS protein (aa 1-169), containing both G12C and C118A amino acid substitutions (Homo sapiens (Human), UniProt P01116, C118A/G12C); test: Coupled nucleotide exchange assay (SOS-mediated nucleotide exchange, AlphaScreen); type: biochemical; settings: 5 min compound pre-incubation; for IC50: read-out: Coupled exchange IC50 (5 min; μM)
[3] = test system: Phosphorylation of ERK1/2 in A549 cells; test: Phospho-ERK1/2 MSD assay in A549 cells; type: cell-based; settings: read-out: p-ERK IC50 (2 h, A549; μM), 2 h compound treatment, A549 cells, EGF stimulated
Method in brief: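 Dose-response treatment lasted 2 or 4 h in RPMI 1640/10% FBS at 37 °C. EGF-stimulated (10 ng/mL, 10 min) ERK1/2 phosphorylation was then quantified in cell lysates with a Meso Scale Discovery phospho-ERK1/2 assay.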

Chain of GDP-bound KRAS protein (aa 1-169), containing both G12C and C118A amino acid substitutions (P01116 other isoform, or with tags, fused parts or gaps G12C/C118A): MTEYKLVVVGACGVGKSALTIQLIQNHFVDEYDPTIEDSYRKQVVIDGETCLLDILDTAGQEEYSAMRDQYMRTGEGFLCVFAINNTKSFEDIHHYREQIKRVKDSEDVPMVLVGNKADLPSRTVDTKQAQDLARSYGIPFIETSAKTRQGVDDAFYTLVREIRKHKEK

Compound	IC50 [1]	IC50 [2]	IC50 ([3]; Homo sapiens, A549, 2 h)	IC50 ([1]; Homo sapiens, MIA PaCa-2, 2 h)	Coupled exchange IC50 (5 min; μM) [2]	IC50 [3]
C=CC(=O)N1C[C@H](C)N(c2nc(=O)n(-c3c(C(C)C)ncnc3C3CC3)c3nc(-c4ccccc4C)c(Cl)cc23)C[C@H]1C [Example 108-2, 6-Chloro-1-(4-cyclopropyl-6-isopropyl-pyrimidin-5-yl)-4-[(2S,5R)-2,5-dimethyl-4-prop-2-enoyl-piperazin-1-yl]-7-(o-tolyl)pyrido[2,3-d]pyrimidin-2-one]	0.032 µM	0.049 µM	> 7.5 µM	–	–	–
C=CC(=O)N1C[C@H](C)N(c2nc(=O)n(-c3c(CC)ncnc3C(C)C)c3nc(-c4ccccc4F)c(Cl)cc23)C[C@H]1C [Example 109-1, 4-((2S,5R)-4-Acryloyl-2,5-dimethylpiperazin-1-yl)-6-chloro-1-(4-ethyl-6-isopropylpyrimidin-5-yl)-7-(2-fluorophenyl)pyrido[2,3-d]pyrimidin-2(1H)-one]	–	0.194 µM	> 7.5 µM	0.052 µM	–	–
C=CC(=O)N1C[C@H](C)N(c2nc(=O)n(-c3c(CC)ncnc3C(C)C)c3nc(-c4ccccc4C)c(Cl)cc23)C[C@H]1C [Example 109-2, 6-Chloro-4-[(2S,5R)-2,5-dimethyl-4-prop-2-enoyl-piperazin-1-yl]-1-(4-ethyl-6-isopropyl-pyrimidin-5-yl)-7-(o-tolyl)pyrido[2,3-d]pyrimidin-2-one]	–	–	> 7.5 µM	0.098 µM	0.107 µM	–
C=CC(=O)N1C[C@H](C)N(c2nc(=O)n(CC(C)(C)C)c3nc(-c4ccccc4F)c(Cl)cc23)C[C@H]1C [Example 110-1, 4-((2S,5R)-4-Acryloyl-2,5-dimethylpiperazin-1-yl)-6-chloro-7-(2-fluorophenyl)-1-neopentylpyrido[2,3-d]pyrimidin-2(1H)-one]	–	0.57 µM	> 7.5 µM	1.12 µM	–	–
C=CC(=O)N1C[C@H](C)N(c2nc(=O)n(-c3c(C)cc(CN(C)C)nc3C(C)C)c3nc(-c4ccccc4F)c(Cl)cc23)C[C@H]1C [Example 121-1, 4-((2S,5R)-4-Acryloyl-2,5-dimethylpiperazin-1-yl)-6-chloro-1-(6-((dimethylamino)methyl)-2-isopropyl-4-methylpyridin-3-yl)-7-(2-fluorophenyl)pyrido[2,3-d]pyrimidin-2(1H)-one]	–	0.195 µM	> 7.5 µM	0.086 µM	–	–
C=CC(=O)N1C[C@H](C)N(c2nc(=O)n(-c3c(C)cc(CN4CCCC4)nc3C(C)C)c3nc(-c4ccccc4F)c(Cl)cc23)C[C@H]1C [Example 121-2, 6-Chloro-4-[(2S,5R)-2,5-dimethyl-4-prop-2-enoyl-piperazin-1-yl]-7-(2-fluorophenyl)-1-[2-isopropyl-4-methyl-6-(pyrrolidin-1-ylmethyl)-3-pyridyl]pyrido[2,3-d]pyrimidin-2-one]	–	0.096 µM	> 7.5 µM	0.081 µM	–	–
C=CC(=O)N1[C@H](C)CN(c2nc(=O)n(-c3c(C(C)C)ccnc3C(C)C)c3nc(-c4ccccc4C)c(Cl)cc23)C[C@@H]1C [Example 124-11, 6-Chloro-1-(2,4-diisopropyl-3-pyridyl)-4-[(3R,5S)-3,5-dimethyl-4-prop-2-enoyl-piperazin-1-yl]-7-(o-tolyl)pyrido[2,3-d]pyrimidin-2-one]	–	0.075 µM	> 7.5 µM	0.098 µM	–	–
C=CC(=O)N1C[C@H](C)N(c2nc(=O)n(-c3c(C(C)C)ccnc3C(C)C)c3nc(-c4ccccc4F)c(Cl)cc23)C[C@H]1C [Example 125-1, 4-((2S,5R)-4-Acryloyl-2,5-dimethylpiperazin-1-yl)-6-chloro-1-(2,4-diisopropylpyridin-3-yl)-7-(2-fluorophenyl)pyrido[2,3-d]pyrimidin-2(1H)-one]	0.055 µM	0.028 µM	–	–	–	> 7.5 µM
C=CC(=O)N1[C@H](C)CN(c2nc(=O)n(-c3c(C(C)C)ccnc3C(C)C)c3nc(-c4ccccc4C)c(Cl)cc23)C[C@@H]1C [Example 125-11, 6-Chloro-1-(2,4-diisopropyl-3-pyridyl)-4-[(3R,5S)-3,5-dimethyl-4-prop-2-enoyl-piperazin-1-yl]-7-(o-tolyl)pyrido[2,3-d]pyrimidin-2-one]	0.187 µM	0.091 µM	–	–	–	> 7.5 µM
C=CC(=O)N1C[C@H](C)N(c2nc(=O)n(-c3c(C)ccnc3C(C)C)c3nc(-c4cccc(F)c4NC(C)=O)c(Cl)cc23)C[C@H]1C [Example 129-12, N[2-(6-Chloro-4-[(2S,5R)-2,5-dimethyl-4-prop-2-enoyl-piperazin-1-yl]-1-(2-isopropyl-4-methyl-3-pvridyl)-2-oxo-pyrido[2,3-d]pyrimidin-7-yl]-6-fluoro-phenyl]acetamide]	–	0.167 µM	> 7.5 µM	0.39 µM	–	–
C=CC(=O)N1C[C@H](C)N(c2nc(=O)n(-c3c(CN4CCCC4)ccnc3C(C)C)c3nc(-c4ccccc4C(C)C)c(Cl)cc23)C[C@H]1C [Example 141-3, 6-Chloro-4-[(2S,5R)-2,5-dimethyl-4-prop-2-enoyl-piperazin-1-yl]-7-(2-isopropylphenyl)-1-[2-isopropyl-4-(pyrrolidin-1-ylmethyl)-3-pyridyl]pyrido[2,3-d]pyrimidin-2-one]	–	0.197 µM	> 7.5 µM	0.331 µM	–	–
C=CC(=O)N1CCN(c2nc(=O)n(CC(C)(C)C)c3nc(-c4ccccc4F)c(Cl)cc23)CC1CC#N (stereo not drawn) [Example 145-1, 2-[4-[6-Chloro-1-(2,2-dimethylpropyl)-7-(2-fluorophenyl)-2-oxo-pyrido[2,3-d]pyrimidin-4-yl]-1-prop-2-enoyl-piperazin-2-yl]acetonitrile]	10 µM	2.07 µM	5.75 µM	–	–	–
C=CC(=O)N1CCN(c2nc(=O)n(CC(C)(C)C)c3nc(-c4ccccc4F)c(Cl)cc23)C(CC#N)C1 (stereo not drawn) [Example 145-3, 2-[1-[6-Chloro-1-(2,2-dimethypropyl)-7-(2-fluorophenyl)-2-oxo-pyrido[2,3-d]pyrimidin-4-yl]-4-prop-2-enoyl-piperazin-2-yl]acetonitrile]	–	3.82 µM	4.41 µM	10 µM	–	–
C=CC(=O)N1C[C@H](C)N(c2nc(=O)n3c4nc(c(Cl)cc24)-c2ccccc2OC/C=C/Cc2ccccc2-3)C[C@H]1C [Example 146-4, 20-chloro-23-((2S,5R)-2,5-dimethyl-4-(2-propenoyl)-1-piperazinyl)-12-oxa-1,24,27-triazapentacyclo[17.6.2.0~2,7~.0~13,18~.0~22,26~]heptacosa-2,4,6,9,13,15,17,19,21,23,26-undecaen-25-one]	–	8.13 µM	> 7.5 µM	4.19 µM	–	–
C=CC(=O)N1C[C@H](C)N(c2nc(=O)n(-c3c(C(C)C)ncnc3C(C)C)c3nc(-c4ccc(F)cc4F)c(F)cc23)C[C@H]1C [Example 153, 7-(2,4-Difluorophenyl)-1-(4,6-diisopropylpyrimidin-5-yl)-4-[(2S,5R)-2,5-dimethyl-4-prop-2-enoyl-piperazin-1-yl]-6-fluoro-pyrido[2,3-d]pyrimidin-2-one]	–	0.38 µM	> 7.5 µM	0.264 µM	–	–
C=CC(=O)N1C[C@H](C)N(c2nc(=O)n(-c3c(C(C)C)nc(OC)nc3C(C)C)c3nc(-c4ccccc4F)c(Cl)cc23)C[C@H]1C [Example 154, 6-Chloro-1-(4,6-diisopropyl-2-methoxy-pyrimidin-5-yl)-4-[(2S,5R)-2,5-dimethyl-4-prop-2-enoyl-piperazin-1-yl]-7-(2-fluorophenyl)pyrido[2,3-d]pyrimidin-2-one]	–	0.062 µM	6.96 µM	0.049 µM	–	–
C=CC(=O)N1C[C@H](C)N(c2nc(=O)n(-c3c(C(C)C)nc(C#N)nc3C(C)C)c3nc(-c4ccccc4F)c(Cl)cc23)C[C@H]1C [Example 155, 5-[6-Chloro-4-[(2S,5R)-2,5-dimethyl-4-prop-2-enoyl-piperazin-1-yl]-7-(2-fluorophenyl)-2-oxo-pyrido[2,3-d]pyrimidin-1-yl]-4,6-diisopropyl-pyrimidine-2-carbonitrile]	–	0.104 µM	2.59 µM	0.063 µM	–	–
C=CC(=O)N1C[C@H](C)N(c2nc(=O)n(-c3c(C(C)C)nc(OCCOC)nc3C(C)C)c3nc(-c4ccccc4F)c(Cl)cc23)C[C@H]1C [Example 156, 4-((2S,5R)-4-Acryloyl-2,5-dimethylpiperazin-1-yl)-6-chloro-1-(4,6-diisopropyl-2-(2-methoxyethoxy)pyrimidin-5-yl)-7-(2-fluorophenyl)pyrido[2,3-d]pyrimidin-2(1H)-one]	–	0.369 µM	> 7.5 µM	0.148 µM	–	–
C=CC(=O)N1C[C@H](C)N(c2nc(=O)n(-c3c(C(C)C)nc(OCCN(C)C)nc3C(C)C)c3nc(-c4ccccc4F)c(Cl)cc23)C[C@H]1C [Example 157, 4-((2S,5R)-4-Acryloyl-2,5-dimethylpiperazin-1-yl)-6-chloro-1-(2-(2-(dimethylamino)ethoxy)-4,6-diisopropylpyrimidin-5-yl)-7-(2-fluorophenyl)pyrido[2,3-d]pyrimidin-2(1H)-one]	–	0.064 µM	> 7.5 µM	0.07 µM	–	–

— patent publication US11285156B2, “Substituted piperazines as KRAS G12C inhibitors” (Amgen Inc., priority 2018, dated 2022)
